Reference: patent US20090062243A1, “Lupane-Type Triterpenoids Modified at 30-Position and Analogues Thereof” (ADVANCED LIFE SCIENCES, INC., priority 2007, published 2009)

How the values were obtained:
Type in all cases: cell-based
SK-MEL-2 (melanoma) = assay: MTS cell viability assay, SK-MEL-2
Procedure: (§1) Cells were plated, the evening before treatment, for each treatment on 96-well plates (1×10^4 cells/well) in 100 μL volume per well. Analog solutions were prepared by diluting each test compound in DSMO (10 mM) with the appropriate cell growth media for each individual cell line, or in “Universal Media” if several cell lines were to be assayed in parallel, immediately prior to cell treatment. Universal Media consisted of 5 mL sodium pyruvate (100× liquid stock, MediaTech), 5 mL glucose (100×, 45% liquid stock, MediaTech), 5 mL Penicillin/Streptomycin (100× liquid stock, MediaTech), 10 mL sodium bicarbonate (50× liquid stock, MediaTech), 25 mL Fetal Calf Serum, 1.25 mL insulin (4 mg/mL, Gibco) and […] RPMI media with 2 mM L-glutamine for a total volume of 500 mL.
(§2) Cells were treated by aspirating plating media from each well and adding 80 μL of betulinic acid (control) or each analog solution in serial dilutions to the adherent cells. All treatments were performed in triplicate. Growth media (80 μL) was added to 3 blank wells (no cells) to measure background from the growth media. Growth media alone (no DMSO or test compound) was added to 3 wells containing cells to measure the baseline MTS activity. Vehicle (DMSO) control in serial dilutions, added to cells, was also included to monitor basal toxicity from DMSO. Cells were incubated at 37° C. for 72 h, or 120 h for the OVCAR cell lines. MTS reagent (per 96-well plate) were prepared by combining 2 mL of MTS working solution (Cell Titer AQueous Non-Radioactive Cell Proliferation Assay, Promega, cat#G1112), 100 μL of 0.92 mg/mL phenazine methosulfate/Dulbecco's PBS and 2.1 mL growth media. MTS reagent (40 μL) were added to each well and incubated at 37° C. for 1.5 to 4 h. Plates were gently shaken by hand until solution in each well appeared homogenous. Absorbances at 490 nm were measured on a Wallac Victor II plate reader at multiple time points following the addition of MTS reagent for each plate. Triplicate absorbance (490 nm) measurements were averaged following background (no cell) subtraction for each drug concentration. Percent Cell Viability was calculated for each drug concentration using the following equation:
(§3) {[Absorbance(analog treated)]/[Absorbance(DMSO treated)]}×100%
(§4) Cytotoxicity dose response for the triterpenoid derivatives synthesized in SK-MEL-2 (melanoma), A-375 (melanoma), Daoy (glioblastoma), LN-229 (glioblastoma), OVCAR-3 (ovarian carcinoma), HT-29 (colon carcinoma), MCF-7 (breast carcinoma) cell lines using the standard MTS assay is summarized in Table 1. In Table 1, compounds 22a-d and compounds 23a-c refer to structures 22 and 23 in Scheme 5, respectively. Compounds 24aa-an and 24ba-bq refer to structure 24 in Scheme 6. Compounds 26a-e refer to structure 26 in Scheme 6. Compounds 36a-c refer to structure 36 in Scheme 10.

Daoy = assay: MTS cell viability assay, Daoy; conditions: cells incubated 72 h
Procedure: as §1, §2, §3, §4

MCF-7 (breast carcinoma) = assay: MTS cell viability assay, MCF-7
Procedure: as §1, §2, §3, §4

LN-229 (glioblastoma) = assay: MTS cell viability assay, LN-229
Procedure: as §1, §2, §3, §4

A-375 (melanoma) = assay: MTS cell viability assay, A-375
Procedure: as §1, §2, §3, §4

HT-29 (colon carcinoma) = assay: MTS cell viability assay, HT-29
Procedure: as §1, §2, §3, §4

[1] = Homo sapiens, SK-MEL-2, cells incubated 72 h
[2] = Homo sapiens, MCF7, cells incubated 72 h
[3] = Homo sapiens, LN-229, cells incubated 72 h
[4] = Homo sapiens, A-375, cells incubated 72 h
[5] = Homo sapiens, HT-29, cells incubated 72 h

| Structure (SMILES) | IC50 (SK-MEL-2 (melanoma); [1]) [µM] | IC50 (Daoy; Homo sapiens, Daoy) [µM] | other results |
| --- | --- | --- | --- |
| C=C(CNCCO)[C@@H]1CC[C@]2(COC3CCCCO3)CC[C@]3(C)[C@H](CC[C@@H]4[C@@]5(C)CCC(NC6CCC(O)CC6)C(C)(C)[C@@H]5CC[C@]43C)[C@@H]12 (stereo partly shown) [Compound 24bi] |  |  | IC50 (SK-MEL-2 (melanoma); cells incubated 72 h): 5 µM; IC50 (Daoy): 5 µM |
| C=C(COC(C)=O)[C@@H]1CC[C@]2(C(=O)O)CC[C@]3(C)[C@H](CC[C@@H]4[C@@]5(C)CCC(=O)C(C)(C)[C@@H]5CC[C@]43C)[C@@H]12 [Compound 17a, 30-O-acetyl betulonic acid] | > 45 | > 45 |  |
| C=C(CNCCO)[C@@H]1CC[C@]2(CO)CC[C@]3(C)[C@H](CC[C@@H]4[C@@]5(C)CCC(NC6CCC(O)CC6)C(C)(C)[C@@H]5CC[C@]43C)[C@@H]12 (stereo partly shown) [Compound 24bj] |  |  | IC50 (MCF-7 (breast carcinoma); cells incubated 72 h): 4 µM; IC50 (SK-MEL-2 (melanoma); cells incubated 72 h): 5 µM; IC50 (Daoy): 5 µM; IC50 (LN-229 (glioblastoma); cells incubated 72 h): 16 µM; IC50 (A-375 (melanoma); cells incubated 72 h): 7 µM; IC50 (HT-29 (colon carcinoma); cells incubated 72 h): 2 µM |
| C=C(CNCCO)[C@@H]1CC[C@]2(CO)CC[C@]3(C)[C@H](CC[C@@H]4[C@@]5(C)CCC(NCCOC)C(C)(C)[C@@H]5CC[C@]43C)[C@@H]12 (stereo partly shown) [Compound 24bc] |  |  | IC50 (MCF-7 (breast carcinoma); cells incubated 72 h): 11 µM; IC50 (SK-MEL-2 (melanoma); cells incubated 72 h): 8 µM; IC50 (Daoy): 5 µM; IC50 (LN-229 (glioblastoma); cells incubated 72 h): 28 µM; IC50 (A-375 (melanoma); cells incubated 72 h): 4 µM; IC50 (HT-29 (colon carcinoma); cells incubated 72 h): 2 µM |
| C=C(CNCCO)[C@@H]1CC[C@]2(CO)CC[C@]3(C)[C@H](CC[C@@H]4[C@@]5(C)CCC(O)C(C)(C)[C@@H]5CC[C@]43C)[C@@H]12 (stereo partly shown) [Compound 23b] | 15 | 35 |  |
| C=C(C(=O)O)[C@@H]1CC[C@]2(COC(C)=O)CC[C@]3(C)[C@H](CC[C@@H]4[C@@]5(C)CCC(=O)C(C)(C)[C@@H]5CC[C@]43C)[C@@H]12 [Compound 13a] | > 45 | > 45 |  |
| C=C(C(=O)O)[C@@H]1CC[C@]2(C(=O)O)CC[C@]3(C)[C@H](CC[C@@H]4[C@@]5(C)CCC(=O)C(C)(C)[C@@H]5CC[C@]43C)[C@@H]12 [Compound 11] | > 75 | > 75 |  |
| C=C(CO)[C@@H]1CC[C@]2(C(=O)O)CC[C@]3(C)[C@H](CC[C@@H]4[C@@]5(C)CC[C@H](O)C(C)(C)[C@@H]5CC[C@]43C)[C@@H]12 [Compound 19b] | > 45 | > 45 |  |
| C=C(CNCCc1ccc(O)cc1)[C@@H]1CC[C@]2(COC3CCCCO3)CC[C@]3(C)[C@H](CC[C@@H]4[C@@]5(C)CCC(=O)C(C)(C)[C@@H]5CC[C@]43C)[C@@H]12 (stereo partly shown) [Compound 22c] | 7 | 13 | IC50 (MCF-7 (breast carcinoma); [2]): 6 µM; IC50 (LN-229 (glioblastoma); [3]): 8 µM; IC50 (A-375 (melanoma); [4]): 6 µM; IC50 (HT-29 (colon carcinoma); [5]): 4 µM |
| C=C(CNCCO)[C@@H]1CC[C@]2(COC3CCCCO3)CC[C@]3(C)[C@H](CC[C@@H]4[C@@]5(C)CCC(N)C(C)(C)[C@@H]5CC[C@]43C)[C@@H]12 (stereo partly shown) [Compound 24ba] | 5 | 5 | IC50 (MCF-7 (breast carcinoma); [2]): 3 µM; IC50 (LN-229 (glioblastoma); [3]): 15 µM; IC50 (A-375 (melanoma); [4]): 3 µM; IC50 (HT-29 (colon carcinoma); [5]): 2 µM |
| C=C(CO)[C@@H]1CC[C@]2(C=O)CC[C@]3(C)[C@H](CC[C@@H]4[C@@]5(C)CCC(=O)C(C)(C)[C@@H]5CC[C@]43C)[C@@H]12 [Compound 18b] | > 75 | > 75 |  |
| C=C(C(=O)O)[C@@H]1CC[C@]2(CO)CC[C@]3(C)[C@H](CC[C@@H]4[C@@]5(C)CC[C@H](O)C(C)(C)[C@@H]5CC[C@]43C)[C@@H]12 [Compound 15] | > 75 | > 75 |  |
| C=C(COC(C)=O)[C@@H]1CC[C@]2(C(=O)O)CC[C@]3(C)[C@H](CC[C@@H]4[C@@]5(C)CC[C@H](O)C(C)(C)[C@@H]5CC[C@]43C)[C@@H]12 [Compound 19a] | > 45 | > 45 |  |
| C=C(CNCCc1ccc(O)cc1)[C@@H]1CC[C@]2(COC3CCCCO3)CC[C@]3(C)[C@H](CC[C@@H]4[C@@]5(C)CCC(N)C(C)(C)[C@@H]5CC[C@]43C)[C@@H]12 (stereo partly shown) [Compound 24bn] | 5 | 2 |  |
| C=C(CNCCO)[C@@H]1CC[C@]2(CO)CC[C@]3(C)[C@H](CC[C@@H]4[C@@]5(C)CCC(N)C(C)(C)[C@@H]5CC[C@]43C)[C@@H]12 (stereo partly shown) [Compound 24bb] | 6 | 5 | IC50 (MCF-7 (breast carcinoma); [2]): 2 µM; IC50 (LN-229 (glioblastoma); [3]): 12 µM; IC50 (A-375 (melanoma); [4]): 5 µM; IC50 (HT-29 (colon carcinoma); [5]): < 2 µM |
| C=C(CO)[C@@H]1CC[C@]2(COC3CCCCO3)CC[C@]3(C)[C@H](CC[C@@H]4[C@@]5(C)CCC(NC6CCC(O)CC6)C(C)(C)[C@@H]5CC[C@]43C)[C@@H]12 (stereo partly shown) [Compound 24ak] |  |  | IC50 (SK-MEL-2 (melanoma); cells incubated 72 h): 38 µM; IC50 (Daoy): 38 µM |
| C=C(CO)[C@@H]1CC[C@]2(CO)CC[C@]3(C)[C@H](CC[C@@H]4[C@@]5(C)CC[C@H](O)C(C)(C)[C@@H]5CC[C@]43C)[C@@H]12 [Compound 8a] | > 75 | > 75 |  |
| C=C(CO)[C@@H]1CC[C@]2(COC(C)=O)CC[C@]3(C)[C@H](CC[C@@H]4[C@@]5(C)CCC(=O)C(C)(C)[C@@H]5CC[C@]43C)[C@@H]12 [Compound 12] | > 45 | > 45 |  |
| C=C(COC(C)=O)[C@@H]1CC[C@]2(C=O)CC[C@]3(C)[C@H](CC[C@@H]4[C@@]5(C)CCC(=O)C(C)(C)[C@@H]5CC[C@]43C)[C@@H]12 [Compound 18a] | > 45 | > 45 |  |
| C=C(C(=O)O)[C@@H]1CC[C@]2(CO)CC[C@]3(C)[C@H](CC[C@@H]4[C@@]5(C)CCC(=O)C(C)(C)[C@@H]5CC[C@]43C)[C@@H]12 [Compound 13b] | > 75 | > 75 |  |
| C=C(CNCCO)[C@@H]1CC[C@]2(COC3CCCCO3)CC[C@]3(C)[C@H](CC[C@@H]4[C@@]5(C)CCC(NCC(=O)OC)C(C)(C)[C@@H]5CC[C@]43C)[C@@H]12 (stereo partly shown) [Compound 24bd] |  |  | IC50 (SK-MEL-2 (melanoma); cells incubated 72 h): 16 µM; IC50 (Daoy): 16 µM |
| C=C(CNCCO)[C@@H]1CC[C@]2(COC3CCCCO3)CC[C@]3(C)[C@H](CC[C@@H]4[C@@]5(C)CCC(=O)C(C)(C)[C@@H]5CC[C@]43C)[C@@H]12 (stereo partly shown) [Compound 22a] | 17 | 21 |  |
| C=C(CNCCO)[C@@H]1CC[C@]2(COC3CCCCO3)CC[C@]3(C)[C@H](CC[C@@H]4[C@@]5(C)CCC(O)C(C)(C)[C@@H]5CC[C@]43C)[C@@H]12 (stereo partly shown) [Compound 23a] | 16 | 54 |  |
| C=C(C=O)[C@@H]1CC[C@]2(C=O)CC[C@]3(C)[C@H](CC[C@@H]4[C@@]5(C)CCC(=O)C(C)(C)[C@@H]5CC[C@]43C)[C@@H]12 [Compound 20] |  | 34 |  |
| C=C(CO)[C@@H]1CC[C@]2(C(=O)O)CC[C@]3(C)[C@H](CC[C@@H]4[C@@]5(C)CCC(=O)C(C)(C)[C@@H]5CC[C@]43C)[C@@H]12 [Compound 17b] | > 45 | > 45 |  |
| CC(CNCCO)[C@@H]1CC[C@]2(CO)CC[C@]3(C)[C@H](CC[C@@H]4[C@@]5(C)CCC(O)C(C)(C)[C@@H]5CC[C@]43C)[C@@H]12 (stereo partly shown) [Compound 36b] | 16 | 54 |  |
| C=C(COC(C)=O)[C@@H]1CC[C@]2(CO)CC[C@]3(C)[C@H](CC[C@@H]4[C@@]5(C)CCC(=O)C(C)(C)[C@@H]5CC[C@]43C)[C@@H]12 [Compound 16] | 43 | > 45 |  |
